Measurements taken from patent US9586968B2, “Bicycloamine-substituted-N-benzenesulfonamide compounds with selective activity in voltage-gated sodium channels” (Merck Sharp & Dohme Corp., priority 2013, dated 2017).

What was measured:
[1] = target: T1, human Nav1.5 (Homo sapiens, UniProt Q14524); experiment: PatchXpress automated patch-clamp, inactivated state block of Nav1.5 (selectivity); assay type: cell-based; details: determined by PatchXpress measurement, HEK 293 cells
T1 construct: expressed in transfected cells
Procedure: (§1) Compounds were tested on human Nav1.7 and Nav1.5 channels stably expressed in HEK 293 cells. Activity toward Nav 1.7 and Nav 1.5 channels was assessed using the following assay methodology.
(§2) Sodium Current Measurements on the PatchXpress 7000®:
(§3) To measure inactivated state block of sodium channels, test compounds were characterized in an automated PatchXpress® assay (Molecular Devices) using a double-pulse protocol on human Nav1.7 and Nav1.5 channels stably expressed in HEK 293 cells. Cells were held at a potential 20 mV negative to V0.5 inact. An 8000 ms pre-pulse 7 mV positive to V0.5 inact was given followed by a hyperpolarizing 2 ms pulse to −120 mV and a 20 ms test pulse to −20 mV. Protocol was applied to cells in the absence, presence of compound and after washout. The temperature of PatchXpress instruments was maintained at 22° C. The following recording solutions were used. Internal solution (mM): 30 CsCl, 5 HEPES, 10 EGTA, 120 CsF, 5 NaF, 2 MgCl2. External solution (mM): 120 NMDG, 40 NaCl, 1 KCl, 0.5 MgCl2, 5 HEPES, 2.7 CaCl2.
(§4) For all electrophysiology experiments, offline analysis was used to correct for current rundown and to determine percent inhibition as a function of drug concentration. IC50 values were determined by fitting to the Hill equation.

[2] = target: T2, human Nav1.7 (Homo sapiens, UniProt Q15858); experiment: PatchXpress automated patch-clamp, inactivated state block of Nav1.7; assay type: cell-based; details: channels stably expressed in HEK 293 cells, 22° C., read-out: potency for the Nav 1.7 sodium ion channel (as measured by PatchXpress)
T2 construct: expressed in transfected cells
Procedure: as §1, §2, §3, §4

T2 sequence (Q15858 whole entry): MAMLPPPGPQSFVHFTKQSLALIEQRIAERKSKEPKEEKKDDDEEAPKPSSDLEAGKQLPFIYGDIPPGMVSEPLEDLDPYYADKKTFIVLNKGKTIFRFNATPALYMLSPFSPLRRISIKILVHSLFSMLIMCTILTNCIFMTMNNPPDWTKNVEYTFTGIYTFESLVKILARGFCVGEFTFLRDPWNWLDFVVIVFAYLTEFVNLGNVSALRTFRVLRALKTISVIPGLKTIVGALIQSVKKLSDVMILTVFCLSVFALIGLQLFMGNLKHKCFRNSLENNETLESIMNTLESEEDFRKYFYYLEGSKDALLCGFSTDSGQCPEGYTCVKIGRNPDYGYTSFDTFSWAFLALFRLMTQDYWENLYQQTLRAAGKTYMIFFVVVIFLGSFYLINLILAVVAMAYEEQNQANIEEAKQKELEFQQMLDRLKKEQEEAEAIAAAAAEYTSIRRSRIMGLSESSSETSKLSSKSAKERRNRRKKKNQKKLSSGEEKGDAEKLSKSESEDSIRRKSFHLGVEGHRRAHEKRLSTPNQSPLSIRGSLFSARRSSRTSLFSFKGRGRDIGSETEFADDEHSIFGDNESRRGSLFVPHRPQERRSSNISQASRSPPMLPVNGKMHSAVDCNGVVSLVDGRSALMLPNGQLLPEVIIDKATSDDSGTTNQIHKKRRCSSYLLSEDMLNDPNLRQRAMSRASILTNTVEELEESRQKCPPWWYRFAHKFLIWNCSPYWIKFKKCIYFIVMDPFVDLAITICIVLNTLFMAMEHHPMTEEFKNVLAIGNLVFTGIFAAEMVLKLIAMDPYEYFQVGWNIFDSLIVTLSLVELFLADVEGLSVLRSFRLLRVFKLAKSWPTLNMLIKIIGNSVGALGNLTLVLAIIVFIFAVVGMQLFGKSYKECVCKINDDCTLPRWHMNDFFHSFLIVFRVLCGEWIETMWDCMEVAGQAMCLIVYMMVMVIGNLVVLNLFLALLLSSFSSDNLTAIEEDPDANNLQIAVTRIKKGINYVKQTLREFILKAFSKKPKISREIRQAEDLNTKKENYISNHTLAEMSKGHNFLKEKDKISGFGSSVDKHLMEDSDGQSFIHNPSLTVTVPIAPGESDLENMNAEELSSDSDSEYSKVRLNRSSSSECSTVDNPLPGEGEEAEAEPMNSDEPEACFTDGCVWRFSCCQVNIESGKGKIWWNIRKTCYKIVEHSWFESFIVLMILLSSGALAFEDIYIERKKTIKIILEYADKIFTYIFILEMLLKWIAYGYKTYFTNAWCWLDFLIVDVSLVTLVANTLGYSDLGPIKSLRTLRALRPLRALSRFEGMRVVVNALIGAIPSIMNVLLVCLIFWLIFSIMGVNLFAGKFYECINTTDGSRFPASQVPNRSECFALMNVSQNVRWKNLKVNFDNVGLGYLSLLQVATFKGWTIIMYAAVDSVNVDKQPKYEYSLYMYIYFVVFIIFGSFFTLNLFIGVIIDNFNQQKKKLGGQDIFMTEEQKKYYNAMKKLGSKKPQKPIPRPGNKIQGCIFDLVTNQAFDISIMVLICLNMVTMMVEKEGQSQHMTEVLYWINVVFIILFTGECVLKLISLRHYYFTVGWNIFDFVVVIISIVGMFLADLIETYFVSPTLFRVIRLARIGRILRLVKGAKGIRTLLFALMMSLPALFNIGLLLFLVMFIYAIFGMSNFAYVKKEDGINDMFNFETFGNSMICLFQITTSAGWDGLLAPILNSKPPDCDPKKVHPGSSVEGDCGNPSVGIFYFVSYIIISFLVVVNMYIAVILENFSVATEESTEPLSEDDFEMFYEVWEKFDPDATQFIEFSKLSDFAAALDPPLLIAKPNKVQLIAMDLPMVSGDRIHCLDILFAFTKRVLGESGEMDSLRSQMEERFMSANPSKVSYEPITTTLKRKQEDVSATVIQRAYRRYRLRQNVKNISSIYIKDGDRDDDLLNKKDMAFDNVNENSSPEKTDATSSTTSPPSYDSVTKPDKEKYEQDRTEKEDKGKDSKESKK
T1 sequence (Q14524 whole entry): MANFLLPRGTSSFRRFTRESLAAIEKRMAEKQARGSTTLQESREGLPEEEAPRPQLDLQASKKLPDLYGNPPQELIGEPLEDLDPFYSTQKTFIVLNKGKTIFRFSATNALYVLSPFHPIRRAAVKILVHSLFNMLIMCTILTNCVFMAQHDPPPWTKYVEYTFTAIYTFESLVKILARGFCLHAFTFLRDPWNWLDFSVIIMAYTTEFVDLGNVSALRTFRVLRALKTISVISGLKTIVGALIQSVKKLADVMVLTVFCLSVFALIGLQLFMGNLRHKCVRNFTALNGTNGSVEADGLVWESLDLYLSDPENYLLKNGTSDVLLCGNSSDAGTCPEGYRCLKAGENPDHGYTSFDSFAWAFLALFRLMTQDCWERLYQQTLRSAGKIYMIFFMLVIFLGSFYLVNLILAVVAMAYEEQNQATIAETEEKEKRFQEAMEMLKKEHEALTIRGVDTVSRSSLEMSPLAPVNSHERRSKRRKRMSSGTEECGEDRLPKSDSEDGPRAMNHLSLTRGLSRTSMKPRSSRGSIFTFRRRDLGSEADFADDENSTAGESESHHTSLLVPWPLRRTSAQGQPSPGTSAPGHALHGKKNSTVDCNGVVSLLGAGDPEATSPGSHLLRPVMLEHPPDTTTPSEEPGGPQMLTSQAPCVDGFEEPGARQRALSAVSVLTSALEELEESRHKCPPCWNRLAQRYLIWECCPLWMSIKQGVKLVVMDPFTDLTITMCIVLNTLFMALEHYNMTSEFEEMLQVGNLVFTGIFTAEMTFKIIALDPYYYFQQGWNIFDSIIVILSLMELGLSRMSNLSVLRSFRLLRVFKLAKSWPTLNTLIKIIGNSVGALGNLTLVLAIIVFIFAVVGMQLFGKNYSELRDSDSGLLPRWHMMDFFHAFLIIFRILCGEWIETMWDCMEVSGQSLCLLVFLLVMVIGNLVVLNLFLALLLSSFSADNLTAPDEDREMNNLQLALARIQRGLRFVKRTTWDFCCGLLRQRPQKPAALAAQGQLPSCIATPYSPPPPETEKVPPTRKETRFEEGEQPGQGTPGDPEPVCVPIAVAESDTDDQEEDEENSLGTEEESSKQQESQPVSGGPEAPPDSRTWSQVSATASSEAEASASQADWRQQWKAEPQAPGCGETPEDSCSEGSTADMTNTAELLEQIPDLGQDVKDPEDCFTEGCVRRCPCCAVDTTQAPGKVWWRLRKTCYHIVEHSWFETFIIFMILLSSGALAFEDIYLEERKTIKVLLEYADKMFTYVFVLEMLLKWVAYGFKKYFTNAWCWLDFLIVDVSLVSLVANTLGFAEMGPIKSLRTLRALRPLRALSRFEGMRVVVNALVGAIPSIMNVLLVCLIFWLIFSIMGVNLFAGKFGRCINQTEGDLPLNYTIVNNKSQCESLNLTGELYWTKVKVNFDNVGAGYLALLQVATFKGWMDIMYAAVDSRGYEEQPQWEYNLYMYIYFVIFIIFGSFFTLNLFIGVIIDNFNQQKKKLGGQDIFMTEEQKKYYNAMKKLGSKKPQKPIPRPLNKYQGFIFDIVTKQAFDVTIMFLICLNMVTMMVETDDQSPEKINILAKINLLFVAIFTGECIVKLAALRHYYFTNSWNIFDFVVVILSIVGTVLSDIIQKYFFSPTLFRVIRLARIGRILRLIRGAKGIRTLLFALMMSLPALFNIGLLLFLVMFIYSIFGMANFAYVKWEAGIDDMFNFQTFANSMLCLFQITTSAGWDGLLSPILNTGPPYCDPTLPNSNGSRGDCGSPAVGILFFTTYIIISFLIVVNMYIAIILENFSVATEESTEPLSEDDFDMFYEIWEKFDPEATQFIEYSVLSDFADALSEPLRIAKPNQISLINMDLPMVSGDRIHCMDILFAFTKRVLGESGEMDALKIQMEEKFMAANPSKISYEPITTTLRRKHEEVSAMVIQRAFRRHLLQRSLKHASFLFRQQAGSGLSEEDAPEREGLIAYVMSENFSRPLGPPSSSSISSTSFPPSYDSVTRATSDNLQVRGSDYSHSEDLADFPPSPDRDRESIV

SMILES	ratio of Nav1.7 potency:Nav 1.5 potency [1]	IC50 [2]
O=S(=O)(Nc1nccs1)c1ccc(NCC23CCCN2CCC3)c(Cl)c1 [Ex1-14, 3-chloro-4-(((hexahydro-1H-pyrrolizin-7a-yl)methyl)amino)-N-(thiazol-2-yl)benzenesulfonamide]	337	48 nM
Cc1cc(S(=O)(=O)Nc2nccs2)c(F)cc1NCC12CCCN1CCC2 [Ex1-15, 2-fluoro-4-(((hexahydro-1H-pyrrolizin-7a-yl)methyl)amino)-5-methyl-N-(thiazol-2-yl)benzenesulfonamide]	1149	34 nM
CCOC(=O)c1cnc(NS(=O)(=O)c2cc(Cl)c(NCC34CCCN3CCC4)cc2F)s1 [Ex1-16, ethyl 2-(5-chloro-2-fluoro-4-(((hexahydro-1H-pyrrolizin-7a-yl)methyl)amino)phenylsulfonamido)thiazole-5-carboxylate]	484	62 nM
O=S(=O)(Nc1nccs1)c1cc(Br)c(NCC23CCCN2CCC3)cc1F [Ex1-17, 5-bromo-2-fluoro-4-(((hexahydro-1H-pyrrolizin-7a-yl)methyl)amino)-N-(thiazol-2-yl)benzenesulfonamide]	670	5 nM
O=S(=O)(Nc1nccs1)c1cc(F)c(NCC23CCCN2CCC3)cc1Cl [Ex1-18, 2-chloro-5-fluoro-4-(((hexahydro-1H-pyrrolizin-7a-yl)methyl)amino)-N-(thiazol-2-yl)benzenesulfonamide]	462	129 nM
O=S(=O)(Nc1nccs1)c1ccc(NCC23CCCN2CCC3)c(C(F)(F)F)c1 [Ex1-20, 4-(((hexahydro-1H-pyrrolizin-7a-yl)methyl)amino)-N-(thiazol-2-yl)-3-(trifluoromethyl)benzene-sulfonamide]	765	14 nM
N#Cc1cc(S(=O)(=O)Nc2nccs2)ccc1NCC12CCCN1CCC2 [Ex2-2, 3-cyano-4-[(tetrahydro-1H-pyrrolizin-7a(5H)-ylmethyl)amino]-N-(1,3-thiazol-2-yl)benzenesulfonamide]	746	40 nM
N#Cc1cc(S(=O)(=O)Nc2cccc(F)n2)ccc1NCC12CCCN1CCC2 [Ex2-3, 3-cyano-N-(6-fluoropyridin-2-yl)-4-[(tetrahydro-1H-pyrrolizin-7a(5H)-ylmethyl)amino]benzene-sulfonamide]	18	168 nM
O=S(=O)(Nc1cccc(F)n1)c1cc(F)c(NCC23CCCN2CCC3)cc1F [Ex2-4, 2,5-difluoro-N-(6-fluoropyridin-2-yl)-4-[(tetrahydro-1H-pyrrolizin-7a(5H)-ylmethyl)amino]benzene-sulfonamide]	269	350 nM
N#Cc1cc(S(=O)(=O)Nc2ncc(Cl)s2)ccc1NCC12CCCN1CCC2 [Ex3-4, N-(5-chloro-1,3-thiazol-2-yl)-3-cyano-4-[(tetrahydro-1H-pyrrolizin-7a(5H)-ylmethyl)amino]benzene-sulfonamide]	199	151 nM
O=S(=O)(Nc1cccnn1)c1cc(Cl)c(NCC23CCCN2CCC3)cc1F [Ex3-5, 5-chloro-2-fluoro-N-(pyridazin-3-yl)-4-[(tetrahydro-1H-pyrrolizin-7a(5H)-ylmethyl)amino]benzene-sulfonamide]	100	1000 nM
O=S(=O)(Nc1ccc(F)cn1)c1cc(Cl)c(NCC23CCCN2CCC3)cc1F [Ex3-7, 5-chloro-2-fluoro-N-(5-fluoropyridin-2-yl)-4-[(tetrahydro-1H-pyrrolizin-7a(5H)-ylmethyl)amino]benzene-sulfonamide]	94	320 nM
CC1CN2CCCC2(CNc2cc(F)c(S(=O)(=O)Nc3ncc(Cl)s3)cc2Cl)C1 [Ex4-10, 5-chloro-N-(5-chlorothiazol-2-yl)-2-fluoro-4-((((2S,7aR and 2R,7aS)-2-methylhexahydro-1H-pyrrolizin-7a-yl)methyl)-amino)benzene-sulfonamide]	2681	10 nM
CC1CN2CCCC2(CNc2ccc(S(=O)(=O)Nc3nccs3)cc2Cl)C1 [Ex4-11, 3-chloro-4-((((2S/7aR and 2R,7aS)-2-methylhexahydro-1H-pyrrolizin-7a-yl)methyl)amino)-N-(thiazol-2-yl)benzenesulfonamide]	7180	5 nM
O=S(=O)(Nc1nccs1)c1cc(Cl)c(NCC23CCCN2CCC3)cc1Br [Ex12-5, 2-bromo-5-chloro-4-(((hexahydro-1H-pyrrolizin-7a-yl)methyl)amino)-N-(thiazol-2-yl)benzenesulfonamide]	288	41 nM
N#Cc1cc(NCC23CCCN2CCC3)c(Cl)cc1S(=O)(=O)Nc1nccs1 [Ex12-6, 5-chloro-2-cyano-4-(((hexahydro-1H-pyrrolizin-7a-yl)methyl)amino)-N-(thiazol-2-yl)benzenesulfonamide]	180	95 nM
Cc1cc(NCC23CCCN2CCC3)c(Cl)cc1S(=O)(=O)Nc1nccs1 [Ex12-7, 5-chloro-4-(((hexahydro-1H-pyrrolizin-7a-yl)methyl)amino)-2-methyl-N-(thiazol-2-yl)benzenesulfonamide]	163	26 nM
CCc1cc(S(=O)(=O)Nc2nccs2)c(F)cc1NCC12CCCN1CCC2 [Ex18-7, 5-ethyl-2-fluoro-4-(((hexahydro-1H-pyrrolizin-7a-yl)-methyl)amino)-N-(thiazol-2-yl)-benzenesulfonamide]	672	19 nM
CCc1cc(S(=O)(=O)Nc2ncc(F)s2)c(F)cc1NCC12CCCN1CCC2 [Ex18-8, 5-ethyl-2-fluoro-N-(5-fluorothiazol-2-yl)-4-(((hexahydro-1H-pyrrolizin-7a-yl)-methyl)amino)-benzenesulfonamide]	2595	5 nM
